pIC50: −log10 of the molar value. Structures can show the parent of a compound that is named as a salt. Where two headings read alike, the source gives them in different places.
Legend:
[1] = system: severe acute respiratory syndrome coronavirus 2 (SARS-CoV2); test: Antiviral activity against SARS-CoV2 in Calu-3 cells, real-time qRT-PCR; type: cell-based; settings: for pIC50: Severe acute respiratory syndrome coronavirus 2, SARS-CoV2 in Calu-3 cells, read-out: IC50 (50% inhibition concentration), antiviral efficacy
[2] = system: C57BL/6J mice with bleomycin-induced pulmonary fibrosis; test: Mouse model with bleomycin-induced pulmonary fibrosis; type: in vivo; settings: for improved (modified) Ashcroft score: oral once a day for 28 days, Compound 1 60 mg/kg, nintedanib 100 mg/kg, BLM group 5.5±0.8, mean and standard deviation, FIG. 9
Experimental: For the mouse model with bleomycin-induced pulmonary fibrosis, C57BL/6J male mice aged 5 weeks and before and after body weight of 20 g were used. C57BL/6J mice were anesthetized by intraperitoneally injection of pentobarbital (40 mg/kg), the skin of the anterior neck or midline was incised, the trachea was exposed with a self-retaining retractor, and then a micro syringe was inserted from the occipital side to the lungs to slowly administer bleomycin (2 mg/kg) while checking the state of respiration. Immediately after injection, the skin of the incised anterior neck or midline was sutured, and then they were bred in a sterile animal room at constant temperature (22-26° C.) and constant humidity (55-60%). By this method, remarkable fibrosis occurred in the lungs, usually after 3 weeks of treatment. Experimental animals were 7 animals in each group, and the experiment was conducted by dividing them into the following groups: a control group (Control) orally administered with distilled water, a group (BLM) with bleomycin-induced pulmonary fibrosis, an experimental group as a positive control group (BLM+Nintedanib) orally administered with 100 mg/kg of nintedanib daily 3 weeks after administration of bleomycin, and an experimental group (BLM+Compound 1) orally administered with 60 mg/kg of Compound 1 daily 3 weeks after administration of bleomycin. Nintedanib and Compound 1 were orally administered once a day for 28 days. On the day after the last administration of nintedanib or compound 1, each animal was anesthetized, and then was bled by cardiac puncture and sacrificed. Lung tissues were enucleated from all animals for histopathological examination. The enucleated lung tissue was fixed in 10% neutral buffered formalin (NBF). The fixed lung tissue was embedded in paraffin and sliced to a thickness of 4 μm to prepare a tissue slide. The tissue slides were subjected to hematoxylin & eosin (H&E) staining, which is cell staining, and Masson's trichrome (MT) staining to confirm fibrosis. Histopathological examination of the prepared tissue slides was confirmed using an optical microscope (Carl Zeiss, Oberkochen, Germany). The severity of fibrosis was assessed using the modified Ashcroft scale, which is a semi-quantitative histopathological scoring. For immunohistochemical staining, the tissue slides prepared above were de-paraffinized, and then rabbit anti-α-smooth muscle actin (SMA) antibody or rabbit anti-collagen type I antibody was used as a primary antibody. And, Vectastatin ABC kit (Vector Laboratories, Inc, Burlingame, CA) was used to confirm the expression of the antigen reacted with each antibody. […] When reading the staining result, if the cytoplasm is colored reddish-brown in whole or in part, it is considered that there is an immune reaction, and thus, it is read as positive. From the experimental results, the mean and standard deviation were obtained using the SPSS ver. 22.0 statistical program (SPSS Inc., Chicago, IL, USA), and the significance of the difference between the experimental groups was verified at p<0.05 level by the student t-test.

[3] = system: normal human lung fibroblasts (NHLFs); test: TGF-β1-induced αSMA and collagen type I expression (myofibroblast differentiation), immunocytochemistry; type: cell-based; settings: 10 ng/ml TGF-β1 72 hours, 2 mM Compound 1 pre-treated 1 hour
Experimental: In order to analyze the effect of Compound 1 on the differentiation of lung fibroblasts into myofibroblasts, the inhibitory effect of Compound 1 on the increase in the expression of TGF-β1-induced α-smooth muscle actin (αSMA) and collagen type I (collagen I) in normal human lung fibroblasts (NHLFs, Lonza) was observed. NHLF cells were suspended in culture medium (FGM-2 Bulletkit media, Lonza) and inoculated at a concentration of 1×10^4 cells/well on a 4-well chamber slide (Nunc). After 24 hours of culture in a CO2 incubator, the medium was replaced with a serum-free medium and further cultured for 12 hours. Thereafter, vehicle and 2 mM Compound 1 were pre-treated in the corresponding wells for 1 hour, and then 10 ng/ml of TGF-β1 was treated in each well except for the negative control (vehicle group) for 72 hours. Confirmation of the expression of αSMA and collagen I in the prepared cells was performed through immunocytochemistry as follows. Cells were fixed in 4% paraformaldehyde for 10 minutes and permeated using 0.1% Triton X-100, and primary antibody (anti-αSMA Ab, 1:200; anti-collagen I Ab, 1:500, reacted for 3 hours at room temperature) and secondary antibody (ALEXA™-594 conjugated Ab, 1:1000, reacted for 1 hour at room temperature) treatment process was sequentially performed, and then the expression of αSMA and collagen I was observed using a fluorescence microscope. […]

[4] = system: IL-1β; test: LPS-induced IL-1β expression in normal human lung fibroblasts, RT-PCR; type: cell-based; settings: NHLFs, pre-treated 30 minutes, LPS 6 hours, FIG. 4
[5] = Toxicity to Calu-3 human lung epithelial cells; type: cell-based; settings: Calu-3 cells, read-out: CC50 (50% cytotoxic concentration)
Experimental: In order to analyze the antiviral activity of the compounds of the synthetic examples, real-time qRT-PCR (quantitative RT-PCR) was perfumed using severe acute respiratory syndrome coronavirus 2 (SARS-CoV2) and Calu-3 cells, which are human lung epithelial cells. Human lung epithelial cells (Calu-3) were cultured in Dulbecco's Modified Eagle Medium (DMEM) at 37° C. under 5% CO2. The concentration of Compound 1 was 15, 12.5, 6.25, 3.125, 1.563, 0.781, 0.391, 0.195, 0.098, 0.049, 0.024, 0.012 μM. Antiviral efficacy (IC50; 50% inhibition concentration) and toxicity to the cells (CC50; 50% cytotoxic concentration) according to drug concentration were measured at 24 hours and 48 hours after treatment on the cells by concentration, and are shown in Table 1 and FIG. 10.

[6] = system: normal human lung fibroblasts (NHLFs); test: PMA stimulation-induced reactive oxygen species generation in normal human lung fibroblasts; type: cell-based; settings: FIG. 1
Excerpt: In order to confirm the effect of the compounds of the synthetic examples on the generation of reactive oxygen species from lung fibroblasts, the generation of reactive oxygen species was induced through PMA stimulation in normal human lung fibroblasts (NHLFs, Lonza), and the inhibitory effect of Compound 1 on the generation of reactive oxygen species was observed under this condition. Each cell was suspended in a culture medium containing 10% FBS, seeded in a 96-well plate, and cultured for 24 hours under conditions of 5% CO2 and 37° C. After pre-treating Compound 1 for 30 minutes to 1 hour, TGF-β1 or phorbol 12-myristate 13-acetate (PMA) stimulation was applied to each well including cells and drugs.

[7] = 60 mg/kg oral once a day for 28 days, FIG. 5

Structure (SMILES): CCCc1c(-c2ccccc2)nn(-c2ccccn2)c1O [Compound 1, 3-phenyl-4-propyl-1-(pyridin-2-yl)-1H-pyrazol-5-ol hydrochloride]
- SI ([1]; CC50/IC50, 24 hours): 13.80
- SI ([1]; CC50/IC50, 48 hours): 98.50
- pIC50 ([1]; 24 hours after treatment): 4.50
- pIC50 ([1]; 48 hours after treatment): 5.78
- deformation of the lung structure (H&E staining) [2, 7]: reduced
- hypertrophic epithelial cells (H&E staining) [2, 7]: decreased
- site of abnormal tissue deposition (H&E staining) [2, 7]: reduced
- degree of infiltration of inflammatory cells into the alveolus and bronchiole (H&E staining) ([2]; 60 mg/kg oral once a day for 28 days, compared with BLM and BLM+Nintedanib groups, FIG. 5): significantly lower than that of the experimental group and the positive control group
- size of the fibrosis area and deposition of collagen due to fibrosis (Masson's trichrome staining) ([2]; 60 mg/kg oral once a day for 28 days, compared with BLM and BLM+Nintedanib groups, FIG. 6): remarkably reduced
- expression of α-SMA in lung tissue (immunohistochemical staining) ([2]; 60 mg/kg oral once a day for 28 days, compared with BLM and BLM+Nintedanib groups, FIG. 7): reduced
- expression of collagen type I (collagen I) in lung tissue (immunohistochemical staining) ([2]; 60 mg/kg oral once a day for 28 days, compared with BLM and BLM+Nintedanib groups, FIG. 8): remarkably reduced
- improved (modified) Ashcroft score [2]: 4.0±1.1
- increase in the expression of αSMA ([3]; FIG. 2): remarkably inhibited
- increase in the expression of collagen I ([3]; FIG. 3): remarkably inhibited
- LPS-induced IL-1β expression [4]: effectively inhibited in a concentration-dependent manner
- CC50 at 24 h ([5]; 24 hours after treatment): 435 µM
- CC50 at 48 h ([5]; 48 hours after treatment): 164 µM
- generation of PMA stimulation-induced reactive oxygen species [6]: inhibited in a concentration-dependent manner

Structure (SMILES): COC(=O)c1ccc2c(c1)NC(=O)/C2=C(\Nc1ccc(N(C)C(=O)CN2CCN(C)CC2)cc1)c1ccccc1 [nintedanib, reference compound]
- improved (modified) Ashcroft score [2]: 5.2±0.45
